From patent US10988444B2, “Antimicrobial compounds” (NEWSOUTH INNOVATIONS PTY LIMITED, priority 2016, dated 2021) come the findings set out here.

In test [1] the test system is E. coli. As to the kind of experiment: Minimal inhibitory concentration (MIC) determination, Example 1. Format: cell-based. The conditions noted are these: 24 h, MHB, 37° C.; for MIC: Escherichia coli, read-out: Minimum inhibitory concentration (MIC) E. coli. The method, then:
(§1) The antibacterial activity of the compounds was determined by the determination of minimal inhibitory concentration (MIC) by following the previously published protocol (see Nizalapur, S.; Ho, K. K.; Kimyon, Ö.; Yee, E.; Berry, T.; Manefield, M.; Cranfield, C. G.; Willcox, M.; Black, D. S.; Kumar, N. Org. Biomol. Chem. 2016, 14, 3623). The compounds to be tested were dissolved and diluted in autoclaved Millipore water. A single colony of bacteria was cultured overnight in TSB at 37° C. The resulting bacteria were collected by centrifugation and re-suspended in the same volume of MHB twice. Optical density (OD) of the resulting culture was adjusted to 0.1 at 600 nm (10^8 CFU/mL) in MHB, and the adjusted culture was further diluted to […] in MHB. Then, 100 μL of the bacterial solution was added to wells of a 96-well plate containing 100 μL of serially diluted compound. Two controls were also prepared: one containing 100 μL of MHB media and 100 μL sterile water, and the other containing 100 μL of bacterial solution and 100 μL sterile water. […] The MIC value was determined as the lowest concentration of compound that inhibited the complete growth of the bacteria (i.e. OD similar to that of the control having no bacteria). Each experiment was performed in triplicate and was repeated in three independent experiments.
(§2) The results of the MIC assay are given below in Table 1.

Test [2] relates to S. aureus. Described as above. The settings on record: MHB, 37° C., 24 h; for MIC: Staphylococcus aureus, read-out: Minimum inhibitory concentration (MIC) S. aureus. In kind it is cell-based. The method, then: as §1, §2
The subject of test [3] is E. coli. Put plainly: Biofilm disruption assay, established biofilms, crystal violet staining. The conditions noted are these: 250 μM, 24 h treatment. Format: cell-based. On the procedure: (§3) Bacterial cultures were grown in TSB media for overnight at 37° C. with shaking at 150 r.p.m. Cultures were diluted (1:20) in YPD medium and 200 μl aliquots were dispensed to flat bottom 96-well plate wells (Sarstedt Australia). Cultures were supplemented with varying concentrations of synthetic compounds dissolved in water. For pre-established biofilm assay, cultures were grown in 96-well plate wells overnight prior to supplementation with synthetic compounds. Control cultures were supplemented with an equal amount of DMSO. Plates were sealed with self-adhesive microplate sealers (TopSeal-A, PerkinElmer) to allow air diffusion and to prevent condensation. Cultures were incubated overnight at 37° C. with shaking at 150 r.p.m. Biofilms adhered on polystyrene substratum were quantified by crystal violet staining as described previously (see Wiegand, I.; Hilpert, K.; Hancock, R. E. W. Nat. Protocols 2008, 3 (2), 163-175). All cultures were prepared in triplicates. Error bars represent the standard error of three independent experiments (n=3).
(§4) The biofilm disruption activities of the compounds were investigated using crystal violet staining according to a previously published protocol (G. A. O'Toole, J Vis Exp, 2011, (47), pii: 2437, DOI: 10.3791/2437, 2437). The ability of compounds (34-38, 51-56, 61, 62, 65 and 66) to disrupt the established biofilms of the Gram-positive bacteria S. aureus and the Gram-negative bacteria Pseudomonas aeruginosa, Serratia marcescens and E. coli, was determined at a concentration of 250 μM. In this assay, bacterial cultures were grown on a polystyrene substratum overnight prior to treatment with the compounds. In addition, the ability of these compounds to inhibit the formation of biofilms of P. aeruginosa and S. marcescens was also investigated at 250 μM, whereby the bacterial cultures were grown in the presence of test compounds.

In test [4] the test system is S. marcescens. As to the kind of experiment: Biofilm inhibition assay (inhibition of biofilm formation), crystal violet staining. In kind it is cell-based. The settings on record: Serratia marcescens, 24 h. The method, then: as §3, with “no-established” for “pre-established”, “along” for “prior to supplementation”, “water.” for “DMSO.”
as §4

Test [5] has as its system S. marcescens. As to the kind of experiment: Biofilm disruption assay, established biofilms, crystal violet staining. In kind it is cell-based, Serratia marcescens. The conditions noted are these: 250 μM, 24 h treatment. The method, then:
as §3, §4

For test [6], the system named is S. aureus. The test is described as above. Format: cell-based. The conditions noted are these: 250 μM, 24 h treatment. The method, then: as §3, §4
The subject of test [7] is Pseudomonas aeruginosa (PAO1). The description is as above. Format: cell-based. The conditions noted are these: 250 μM, 24 h treatment. On the procedure: as §3, §4
In a further test the test system is S. aureus (SA38). Put plainly: Minimal inhibitory concentration (MIC) assay, broth micro dilution, Example 3. Format: cell-based. The conditions noted are these: Staphylococcus aureus; SA38, MHB, 37° C., 18-24 hours; read-out: Minimum inhibitory concentration (MIC) S. aureus. The method, then:
(§5) Compounds 95, 96, 106, 107, 109, 117 were assessed by determining their minimum inhibitory concentration (MIC) according through broth micro dilution assay using the procedure described by M. A. Wikler, Methods for dilution antimicrobial susceptibility tests for bacteria that grow aerobically: approved standard, Clinical and Laboratory Standards Institute, 2006. Briefly, bacteria were grown to mid-log phase in Muller Hinton broth (MHB) with shaking at 120 rpm and incubated at 37° C. for 18-24 hours. Following incubation, bacteria were washed three times in PBS pH 7.4 at 3500 g for 10 minutes. After washing, bacteria were diluted with fresh MHB. The turbidity of the bacterial suspensions were adjusted so that OD660 nm was 0.1, which gave 1×10^8 cfu/ml, and then further diluted to achieve 1-2×10^5 cfu/ml as a final bacterial concentration. Each compound was diluted (250-3.9 μM) through two-fold dilution. Wells in microtitre plates were loaded with 100 μl of inoculum containing 1-2×10^5 cfu/ml bacteria. Wells without any compound and containing only bacteria were used as a negative control (i.e. no inhibition of growth). Wells without bacteria but containing compound acted as another control. The microtitre plate was wrapped with paraffin to prevent evaporation and incubated with shaking at 120 rpm and 37° C. for 18-24 hours. After incubation, spectrophotometric reading was taken. The well without any bacterial growth and showing zero spectrophotometric reading regarded as mic of the compounds.

In another test the test system is E. coli (K12). The test is described as above. Format: cell-based. The settings on record: Escherichia coli; K12, MHB, 37° C., 18-24 hours; read-out: Minimum inhibitory concentration (MIC) E. coli. On the procedure: as §5

In brackets after ≈: the same amount, converted by molar mass.

On to `Cl.N=C(N)NCCCNC(=O)C(=O)c1ccccc1NC(=O)c1ccc2ccccc2c1` [Compound 34, N-(2-(2-((3-Guanidinopropyl)amino)-2-oxoacetyl)phenyl)-2-naphthamide hydrochloride], for which the MIC in the test with E. coli [1] was more than 110 µg/mL; with S. aureus [2], 23 µg/mL.
The inhibition is how much of the control response was suppressed. High values mean strong suppression, low ones little suppression. Turning to `Cl.N=C(N)NCCCNC(=O)C(=O)c1cc(F)ccc1NC(=O)c1ccc2ccccc2c1` [Compound 37, N-(4-Fluoro-2-(2-((3-guanidinopropyl)amino)-2-oxoacetyl)phenyl)-2-naphthamide hydrochloride], in the test with E. coli [3], the “disruption of established biofilms of E. coli” value was 53%. Also, the MIC in the test with E. coli [1] worked out at 59 µg/mL; in the test on S. aureus [2], 30 µg/mL. Also, in the test with S. marcescens [4], the inhibition at 250 µM came out at 74%.
Take `Cc1ccc(NC(=O)c2ccc3ccccc3c2)c(C(=O)C(=O)NCCCNC(=N)N)c1.Cl` [Compound 38, N-(2-(2-((3-Guanidinopropyl)amino)-2-oxoacetyl)-4-methylphenyl)-2-naphthamide hydrochloride]: the MIC in the test with E. coli [1] was more than 110 µg/mL; in the test on S. aureus [2] it was 93 µg/mL.
Take `Cl.N=C(N)NCCCC[C@H](NC(=O)C(=O)c1ccccc1NC(=O)c1ccc2ccccc2c1)C(=O)O` [Compound 51, N^2-(2-(2-(2-naphthamido)phenyl)-2-oxoacetyl)-N^6-carbamimidoyllysine hydrochloride]: the MIC with E. coli [1] was 66 µg/mL; in the test on S. aureus [2], 53 µg/mL. Moreover, the “disruption of established biofilms of S. marcescens” value in the test on S. marcescens [5] amounted to 48%.
`Cl.N=C(N)NCCCC[C@H](NC(=O)C(=O)c1cc(Br)ccc1NC(=O)c1ccc2ccccc2c1)C(=O)O` [Compound 52, N^2-(2-(2-(2-naphthamido)-5-bromophenyl)-2-oxoacetyl)-N^6-carbamimidoyllysine hydrochloride]: the “disruption of established biofilms of S. aureus” value in the test with S. aureus [6] stood at 42%. Also, the MIC in the test with E. coli [1] and with S. aureus [2] was 77 µg/mL throughout. Testing at 250 µM with S. marcescens [4] gave an inhibition of 72%.
Take `Cc1ccc(NC(=O)c2ccc3ccccc3c2)c(C(=O)C(=O)N[C@@H](CCCCNC(=N)N)C(=O)O)c1.Cl` [Compound 54, N^2-(2-(2-(2-naphthamido)-5-methylphenyl)-2-oxoacetyl)-N^6-carbamimidoyllysine hydrochloride]: the “disruption of established biofilms of P. aeruginosa” value in [7] was 46%. Besides, the MIC with E. coli [1] came to 68 µg/mL; in the test with S. aureus [2], 54 µg/mL. For the same compound, the “Minimum inhibitory concentration (MIC) E. coli” value in the test with E. coli [1] (hydrochloride) is 69 µg/mL.
Turning to `CC(=O)C(CCCCNC(=N)N)NC(=O)C(=O)c1ccccc1NC(=O)c1ccc2ccccc2c1.Cl` (centres unmarked) [Compound 55, N-(2-(2-((7-guanidino-2-oxoheptan-3-yl)amino)-2-oxoacetyl)phenyl)-2-naphthamide hydrochloride], the values for the MIC in the test on E. coli [1] and in the test with S. aureus [2] were 17 µg/mL and more than 140 µg/mL, respectively.
On to `CC(=O)C(CCCCNC(=N)N)NC(=O)C(=O)c1cc(Br)ccc1NC(=O)c1ccc2ccccc2c1.Cl` (centres unmarked) [Compound 56, N-(4-bromo-2-(2-((7-guanidino-2-oxoheptan-3-yl)amino)-2-oxoacetyl)phenyl)-2-naphthamide hydrochloride], for which the MIC with E. coli [1] was 19 µg/mL; in the test with S. aureus [2] it was more than 140 µg/mL. Also, the inhibition at 250 µM in the test with S. marcescens [4] was 61%.
Turning to `NCCNC(=O)[C@H](Cc1c[nH]c2ccccc12)NC(=O)c1cc(Br)ccc1NC(=O)c1ccc2ccccc2c1` [Compound 95, (S)—N-(2-((1-((2-Aminoethyl)amino)-3-(1H-indol-3-yl)-1-oxopropan-2-yl)carbamoyl)-4-bromophenyl)-2-naphthamide], the MIC is 3.9 µM (≈ 2.33 µg/mL) with S. aureus (SA38) and more than 125 µM with E. coli (K12).
On the same counts, the results for `NCCNC(=O)[C@H](Cc1c[nH]c2ccccc12)NC(=O)c1cc(F)ccc1NC(=O)c1ccc2ccccc2c1` [Compound 96, (S)—N-(2-((1-((2-Aminoethyl)amino)-3-(1H-indol-3-yl)-1-oxopropan-2-yl)carbamoyl)-4-fluorophenyl)-2-naphthamide] are 7.8 µM (≈ 4.19 µg/mL) and 15.6 µM (≈ 8.39 µg/mL).
Taken in the same sequence, the figures for `N=C(N)NCCNC(=O)[C@H](Cc1c[nH]c2ccccc12)NC(=O)c1cc(Br)ccc1NC(=O)c1ccc2ccccc2c1` [Compound 106, (S)—N-(4-Bromo-2-((1-((2-guanidinoethyl)amino)-3-(1H-indol-3-yl)-1-oxopropan-2-yl)carbamoyl)phenyl)-2-naphthamide] were 3.9 µM (≈ 2.5 µg/mL) and 15.6 µM (≈ 9.99 µg/mL).
On the same counts, the results for `N=C(N)NCCNC(=O)[C@H](Cc1c[nH]c2ccccc12)NC(=O)c1cc(F)ccc1NC(=O)c1ccc2ccccc2c1` [Compound 107, (S)—N-(4-Fluoro-2-((1-((2-guanidinoethyl)amino)-3-(1H-indol-3-yl)-1-oxopropan-2-yl)carbamoyl)phenyl)-2-naphthamide] are 1.8 µM (≈ 1.04 µg/mL) and 125 µM (≈ 72.5 µg/mL).
On to `COc1ccc(NC(=O)c2ccc3ccccc3c2)c(C(=O)N[C@@H](Cc2c[nH]c3ccccc23)C(=O)NCCNC(=N)N)c1` [Compound 109, (S)—N-(2-((1-((2-Guanidinoethyl)amino)-3-(1H-indol-3-yl)-1-oxopropan-2-yl)carbamoyl)-4-methoxyphenyl)-2-naphthamide], for which the MIC in the test with S. aureus (SA38) turned out to be 7.8 µM (≈ 4.62 µg/mL); in the test on E. coli (K12), 62.5 µM (≈ 37 µg/mL).
As for `CN(C)CCNC(=O)[C@H](Cc1c[nH]c2ccccc12)NC(=O)c1cc(Br)ccc1NC(=O)c1ccc2ccccc2c1` [Compound 117, (S)-2-(2-(2-(2-Naphthamido)-5-bromobenzamido)-3-(1H-indol-3-yl)propanamido)-N,N-dimethylethan-1-aminium chloride], the MIC in the test on S. aureus (SA38) came out at 7.8 µM; in the test with E. coli (K12), 125 µM.
As to Gentamicin [reference compound], the “Minimum inhibitory concentration (MIC) E. coli” value in the test with E. coli [1] came out at 2.5 µg/mL. For the same compound, in the test on S. aureus [2], the “Minimum inhibitory concentration (MIC) S. aureus” value is less than 0.6 µg/mL.
